Experimental data reported in paper PMC4335872, “Pharmacokinetic-Pharmacodynamic Analysis of Spiroindolone Analogs and KAE609 in a Murine Malaria Model” (Antimicrobial Agents and Chemotherapy, 2015).
Values after ≈ are worked out from the molar mass of the structure shown.

How the values were obtained:
[1] = system: P. berghei GFP ANKA PbGFPCON; assay: In vitro (ex vivo) P. berghei maturation assay; assay type: cell-based, Plasmodium berghei; details: 16 h + 8 h incubation; read-out: IC50 (mean ± SD) for P. berghei GFP ANKA PbGFPCON (n = 3)
Method: For the in vitro (ex vivo) P. berghei maturation assays ([38]), heparinized blood from infected mice (P. berghei GFP ANKA malaria strain PbGFPCON, a donation from A. P. Waters and C. J. Janse, Leiden University, Leiden, the Netherlands) ([39]) was washed with 9 ml of hypoxanthine-free culture medium and diluted with hypoxanthine-free culture medium and red blood cells (RBCs) from uninfected mice to a hematocrit of 5% and a parasitemia of 0.3%. Serial compound dilutions were prepared in DMSO and distributed as described above. The infected erythrocytes (0.3% final parasitemia and 2.5% final hematocrit) were added into the wells. After the plates were incubated for 16 h, 0.25 μCi of [^3H]hypoxanthine was added per well, and the plates were incubated for an additional 8 h. The parasites were harvested, and the in vitro (ex vivo) P. berghei IC50, IC90, and IC99 values were determined as described above.

P. falciparum NF54 = assay: In vitro [3H]hypoxanthine incorporation assay, P. falciparum NF54; assay type: cell-based, Plasmodium falciparum; details: for IC50: 16 h + 8 h incubation, read-out: IC50 (mean ± SD) for P. falciparum NF54 (n = 3)
Method: Human erythrocytes served as the host cells. In vitro antimalarial activity was measured using the [^3H]hypoxanthine incorporation assay ([36]) with strain NF54 of P. falciparum (obtained from Hoffmann-LaRoche Ltd.). The compounds were dissolved in dimethyl sulfoxide (DMSO) at a concentration of 10 mM, diluted in hypoxanthine-free culture medium, and titrated in duplicate over a 64-fold range in 96-well plates. […] The parasites were harvested onto glass fiber filters, and radioactivity was measured using a BetaPlate liquid scintillation counter (Wallac, Zurich, Switzerland). All assays were repeated at least three times. The results were recorded and expressed as a percentage of the untreated controls. […] In addition, for the PK-PD analysis of KAE609, an IC99 value was determined by transforming the data from a scintillation counter (Anscombe transformation) to account for Poissonian measurement error. […] Each of the three replicates was performed on a distinct 96-well plate. This has been accounted for in the fitting procedure by means of a Bayesian hierarchical model. The software used for parameter inference was Stan ([37]).

[2] = Mouse plasma protein binding, rapid equilibrium dialysis; assay type: in vitro ADME
Text: (§1) page 5: Running title: PreclinicalPK -PD of antimalarials 73 to high through put form at using in- house standard assa y protocols that are described in the 74 literature. 75 (a)HT-Equilibrium solubilit y at pH 6.8( 1); (b)Parallel Artificial Membrane P ermeability Assa y 76 expressed in % fraction absorbed (FA) ( 2,3 ); (c)Apparent permeability from apical to […] 78 tested; (d)intrinsic clearance in mouse liver micro somes ex pressed as µ L/ min/mg protein, in 79 the presen ce of liver enzym es ( 6); (e)Mous e plasm a protein binding using rapid equilibrium […] 81 82 83 84 85 86 87 88 89 90 91 92 93 94 95 96 97 98 5

[3] = In vivo PK after single p.o. and i.v. dosing in CD-1 mice; design: species or system female CD-1 mice; details: CD-1 mice; for CL / Vss / t1/2 (i.v.): i.v. 5 mg/kg; for F (oral bioavailability): oral 25 mg/kg vs i.v. 5 mg/kg; for AUC0–24 / Tmax / t1/2 (oral) / Cmax: single oral dose 25 mg/kg; for Cmax: plasma
Method: The Institutional Animal Care and Use Committee (IACUC) of the Novartis Institute for Tropical Diseases (NITD), registered with the Agri-Food and Veterinary authority (AVA), Government of Singapore, reviewed and approved all animal experimental protocols. […] The mice were allowed to acclimate before the initiation of the experiments. Feed and water were given ad libitum. […] The blood samples from the mice were collected at 0.02 (for i.v. only), 0.08, 0.25, 0.5, 1, 2, 4, 8, 16, and 24 h postdosing. The dose proportionality studies were conducted with KAE609. […] Additional samples were collected at 32 h and 48 h postdose for the 1- and 5-mg/kg dose groups and up to 72 h postdose for the 100-mg/kg dose group. Groups of three mice were used for each time point. Blood was centrifuged at 13,000 rpm for 7 min at 4°C, and plasma was harvested and stored at -20°C until analysis. […] After vortexing and centrifuging the mixture, the supernatant was removed and 5 μl of sample analyzed. Analyte quantitation was performed by high-performance liquid chromatography coupled with tandem mass spectrometry (LC-MS/MS). […] Instrument control and data acquisition were performed using the Applied Biosystems software Analyst 1.4.2. […] Multiple-reaction monitoring (MRM) was combined with optimized MS parameters to maximize detection specificity and sensitivity. The most intense MRM transitions [338.3/295.1 for (+)-1, 370.1/327.0 for (+)-2, 370.0/326.9 for (+)-3, 354.1/310.8 for (+)-4, 354.1/311.2 for (+)-5, 372.1/329.1 for (+)-6, 388.0/331.8 for (+)-7, 372.1/316.1 for (-)-6, and 388/332 for (-)-7] were used for quantitation. Most compounds were analyzed using electrospray ionization in the negative mode, except (+)-1, which was analyzed using positive mode. The recovery of the compounds from plasma was good and consistent across the concentration range studied. The lower limits of quantification for different compounds ranged from 1.3 to 70 ng/ml in plasma. A calibration curve was freshly prepared and analyzed with every set of study samples. Intraday variability was established with triplicate quality control samples at three concentration levels. The results were accepted if relative standard deviation was <15%. The mean values of the compound concentrations in plasma were obtained from three animals at each time point and plotted against time to generate concentration-time profiles. […] The oral bioavailability (F) was calculated as the ratio between the area under the concentration-time curve from 0 to infinity (AUC0-∞) following oral administration and the AUC0-∞ following intravenous administration corrected for dose (F = […].).

[4] = HT-equilibrium solubility; assay type: physicochemical; details: pH 6.8, HT-equilibrium solubility
Text: (§2) page 5: Running title: PreclinicalPK -PD of antimalarials 73 to high through put form at using in- house standard assa y protocols that are described in the 74 literature. […] 81 82 83 84 85 86 87 88 89 90 91 92 93 94 95 96 97 98 5

[5] = RBC to plasma partitioning; assay type: in vitro ADME; details: mean from 1 µM & 10 µM
Text: as §2

Caco-2 cells = assay: Caco-2 permeability; assay type: in vitro ADME; details: apical to basolateral
Text: as §1

[6] = Intrinsic clearance in mouse liver microsomes; assay type: in vitro ADME; details: per mg protein
Text: as §1

SMILES	IC50 [1]	IC50 (P. falciparum NF54)	Mouse PPB [2]	CL [3]	Vss [3]	t1/2 (i.v.) [3]	F (oral bioavailability) [3]	AUC0–24 [3]	Tmax [3]	t1/2 (oral) [3]	Cmax [3]	Solubility [4]	RBC to Plasma Ratio [5]	Caco-2 Papp (A-B) (Caco-2 cells)	Hepatic CLint in mouse liver microsomes [6]	In vitro activity against P. falciparum (P. falciparum NF54)
C[C@H]1Cc2c([nH]c3cc(F)c(F)cc23)[C@@]2(N1)C(=O)Nc1ccc(Cl)cc12 [(+)-6]	0.0075 ± 0.0025 µM	0.00033 ± 6e-05 µM	99.5%	8.5 mL/min/kg	1.6 L/kg	2.9 h	53%	26800 ng·h/mL	2 h	3.2 h	3100 ng/mL	169 µM (≈ 63.2 µg/mL)	1.12	5.55 10-6 cm/sec	41 µL/min/mg	
C[C@@H]1Cc2c([nH]c3cc(F)c(F)cc23)[C@]2(N1)C(=O)Nc1ccc(Cl)cc12 [(−)-6]	2.85 µM	0.105 ± 0.02 µM	99.6%	4.2 mL/min/kg	2.8 L/kg	13.2 h	78%	68200 ng·h/mL	2 h	7.9 h	5000 ng/mL	112 µM (≈ 41.9 µg/mL)	0.81	4.8 10-6 cm/sec	36 µL/min/mg	submicromolar
C[C@@H]1Cc2c([nH]c3cc(Cl)c(F)cc23)[C@]2(N1)C(=O)Nc1ccc(Cl)cc12 [(−)-7]	4.91 µM	0.21 ± 0.019 µM	99.4%	2.6 mL/min/kg	1.3 L/kg	5.6 h	92%	107300 ng·h/mL	1 h	9.1 h	8300 ng/mL	35 µM (≈ 13.7 µg/mL)	0.52	1.73 10-6 cm/sec	21 µL/min/mg	submicromolar
